Where a chain is given by its changes, count along the chain named. Like-named read-outs stand apart in the source and are kept apart here.
Columns and labels:
Assay type in all cases: biochemical
[1] = target: T1, wild-type human Core 2 GlcNAcT1 (Homo sapiens, UniProt Q02742, I152V); experiment: Activity of stored recombinant enzyme after addition of reducing agents; details: following storage of expressed and purified recombinant enzyme
T1 construct: S-tag (N, cleaved yes); made in house
T1 sequence (Q02742 37-428 I152V): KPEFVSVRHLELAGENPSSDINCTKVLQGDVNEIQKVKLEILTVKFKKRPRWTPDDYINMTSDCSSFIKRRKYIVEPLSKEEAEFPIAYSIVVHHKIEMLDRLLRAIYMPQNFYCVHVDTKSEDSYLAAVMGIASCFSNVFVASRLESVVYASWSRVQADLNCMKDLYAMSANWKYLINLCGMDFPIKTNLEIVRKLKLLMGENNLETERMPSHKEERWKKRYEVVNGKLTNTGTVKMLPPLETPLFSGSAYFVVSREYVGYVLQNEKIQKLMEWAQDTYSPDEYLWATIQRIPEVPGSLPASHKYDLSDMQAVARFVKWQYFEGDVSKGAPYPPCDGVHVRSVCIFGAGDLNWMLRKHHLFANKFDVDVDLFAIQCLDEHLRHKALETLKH
Source text: (§1) Iodoacetamide, 5,5′-dithiobis(2-nitrobenzoic acid) (DTNB), and N-ethylmaleimide causes inhibition of wild-type human and mouse Core 2 GlcNAcT1s. […] The blocking of this residue by oxidation, alkylation, or heavy metal binding causes inhibition of the enzyme.

[2] = target: T2, wild-type mouse Core 2 GlcNAcT1 (Mus musculus, UniProt Q09324, H362D/H420R/R88W/S191T/T260A); experiment: as above; details: following storage of expressed and purified recombinant enzyme
T2 construct: made in house; host or cells: COS-7 or CHO-S cells, secreted into the culture supernatant, purified on anti-FLAG M1 beads
T2 sequence (Q09324 34-428 R88W/S191T/T260A/H362D/H420R): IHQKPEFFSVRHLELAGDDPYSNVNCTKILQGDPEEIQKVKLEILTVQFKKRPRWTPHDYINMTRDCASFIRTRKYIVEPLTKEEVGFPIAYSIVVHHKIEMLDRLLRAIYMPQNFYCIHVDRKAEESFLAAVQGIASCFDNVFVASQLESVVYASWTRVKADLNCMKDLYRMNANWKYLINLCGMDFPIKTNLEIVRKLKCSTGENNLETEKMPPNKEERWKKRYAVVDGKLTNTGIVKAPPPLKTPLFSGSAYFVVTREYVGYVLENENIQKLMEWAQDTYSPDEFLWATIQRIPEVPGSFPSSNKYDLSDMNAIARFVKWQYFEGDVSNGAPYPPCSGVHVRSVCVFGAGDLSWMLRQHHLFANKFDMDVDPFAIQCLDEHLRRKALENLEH
Source text: as §1

[3] = target: T3, C217S human Core 2 GlcNAcT1 (Homo sapiens, UniProt Q02742, C217S); experiment: Effects of sulfhydryl reagents and heavy metals on enzyme activity (% activity); details: relatively high concentrations (FIG. 2), 37° C., 2.0 hours
T3 construct: S-tag (N, cleaved yes); made in house
T3 sequence (Q02742 37-428 C217S): T1 sequence (Q02742 37-428 I152V) with V116I, C181S
Experimental: (§2) Wild-type and C217S, human and mouse, Core 2 GlcNAcT1s were dissolved in an aqueous solution containing 30 mM 2-morpholinoethanesulfonic acid (MES) buffer (pH 6.7) and 1.0 mg/ml bovine serum albumin (BSA). Iodoacetamide (IAA), 5,5′-dithiobis(2-nitrobenzoic acid) (DTNB), N-ethylmaleimide (NEM), HgCl2 and ZnSO4 were added at the concentrations listed on FIGS. 1 and 2. 1.0 mM UDP-GlcNAc, 0.50 mM Gal(β1-3)GalNAcα-pnp, (3H)UDP-GlcNAc (0.50 μCi) and 30 mM MES buffer (pH 6.7) were added as well. The solutions were incubated at 37° C. for 2.0 hours. The (^3H)UDP-GlcNAc and (^3H)GlcNAc(β1-6)Gal(β1-3)GalNAcα-pnp were separated by solid-phase extraction and the DPM of (^3H)Gal(β1-3) GlcNAc(β1-6)GalNAcα-pnp were counted by liquid scintillation. A solution containing all components with exception of enzymes was prepared to measure background levels. The % activity was calculated as follows: (DPMinhibitor−DPMbackground)/(DPMcontrol−DPMbackground)*100. All assays were performed in duplicate. The results are plotted in FIGS. 1 and 2.

[4] = target: T4, C217S mouse Core 2 GlcNAcT1 (Mus musculus, UniProt Q09324, C217S); experiment: as above; details: relatively high concentrations (FIG. 1), 37° C., 2.0 hours
T4 construct: made in house; host or cells: CHO-S or COS-7 cells, secreted, purified on anti-FLAG M1 beads
T4 sequence (Q09324 with tags, fused parts or gaps R88W/S191T/C217S/T260A/H362D/H420R): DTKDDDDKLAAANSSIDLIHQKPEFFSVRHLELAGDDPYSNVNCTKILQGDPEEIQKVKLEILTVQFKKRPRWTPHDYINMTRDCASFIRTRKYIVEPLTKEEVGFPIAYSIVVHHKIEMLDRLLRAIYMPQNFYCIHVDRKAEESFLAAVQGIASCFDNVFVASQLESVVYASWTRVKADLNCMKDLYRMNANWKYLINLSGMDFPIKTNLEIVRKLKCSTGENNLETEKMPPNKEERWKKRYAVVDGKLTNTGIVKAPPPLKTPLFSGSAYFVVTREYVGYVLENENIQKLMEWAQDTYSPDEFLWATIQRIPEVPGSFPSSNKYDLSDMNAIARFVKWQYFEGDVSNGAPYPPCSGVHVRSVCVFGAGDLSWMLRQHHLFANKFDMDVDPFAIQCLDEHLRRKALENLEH
Experimental: as §2

[5] = target: T1, wild-type human Core 2 GlcNAcT1; experiment: as above; details: 37° C., 2.0 hours, concentrations listed on FIG. 2
Experimental: as §2

[6] = target: T5, wild-type mouse Core 2 GlcNAcT1 (Mus musculus, UniProt Q09324); experiment: as above; details: 37° C., 2.0 hours, concentrations listed on FIG. 1
T5 construct: made in house; host or cells: COS-7 or CHO-S cells, secreted into the culture supernatant, purified on anti-FLAG M1 beads
T5 sequence (Q09324 34-428 R88W/S191T/T260A/H362D/H420R): T2 sequence (Q09324 34-428 R88W/S191T/T260A/H362D/H420R)
Experimental: as §2

[7] = target: T3, C217S human Core 2 GlcNAcT1; experiment: Kinetic characterization assays (standard enzyme assay with titrated substrate or product); details: for inhibitory potential of the reaction product, C217S compared with wild-type: human enzymes, titrated product in standard assay; for Km: C217S human enzyme
Experimental: (§3) Standard enzyme assays for wild-type and mutant (217Cys→Ser) Core 2 GlcNAcT1 were carried out in a 30 μl solution containing 30 mM 2-morpholinoethanesulfonic acid (MES) buffer (pH 6.7), 1.0 mM UDP-GlcNAc (donor substrate), 1.0 μCi UDP-6-[3H]GlcNAc, 0.50 mM (Galβ1-3)GalNAcα-pNp (acceptor substrate or AS), 1 mg/ml BSA, and 15-25 μU (1 unit=1 micromole/min) per assay of recombinant Core 2 GlcNAcT1 protein. The reaction was incubated for 2.0 hours at 37° C. and stopped by the addition of 460 μl of water. Reactions were frozen at −20° C. if they were not processed immediately. The reaction product Galβ1,3 [^3H]GlcNAc(β1,6)GalNAcα-pNp was separated from unreacted UDP-6[^3H]GlcNAc by solid phase extraction using Waters Sep-Pak columns. Samples were eluted from the column with ethanol, added to 10 ml of scintillation fluid and radioactivity (DPM) was determined.
(§4) Km values were determined by running the standard assay conditions with the exception of the titration of the donor substrate UDP-GlcNAc concentration (for Km,DS) or AS concentration (for Km,AS). The IC50 values for the products UDP and GlcNAc(β1-6)Gal(β1-3)GalNAcα-pNp were determined by running the standard assay conditions and adding titrated product. The mechanism was determined by titrating both donor and acceptor substrates at the same time.

[8] = target: T4, C217S mouse Core 2 GlcNAcT1; experiment: as above; details: for inhibitory potential of the reaction product, C217S compared with wild-type: mouse enzymes, titrated product in standard assay
Experimental: as §3, §4

[9] = target: T1, wild-type human Core 2 GlcNAcT1; experiment: as above
Experimental: as §3, §4

[10] = target: T2, wild-type mouse Core 2 GlcNAcT1; experiment: as above
Experimental: as §3, §4

[11] = target: T5, wild-type mouse Core 2 GlcNAcT1; experiment: as above; details: Ordered Bi Bi mechanism, read-out: KD for the donor substrate
Experimental: as §3, §4

[12] = acceptor substrate titrated, read-out: Km value for the acceptor substrate
[13] = donor substrate titrated, read-out: Km value for the donor substrate

| Compound | inhibition of enzyme activity [3] | inhibition of enzyme activity [4] | inhibition of enzyme activity [5] | inhibition of enzyme activity [6] | also measured |
| --- | --- | --- | --- | --- | --- |
| O[C@@H](CS)[C@@H](O)CS (racemic) [DTT, 1,4-dithiothreitol] |  |  |  |  | change of enzyme activity after addition of reducing agent [1]: increase; change of enzyme activity after addition of reducing agent [2]: increase |
| O=C(O)c1cc(SSc2ccc([N+](=O)[O-])c(C(=O)O)c2)ccc1[N+](=O)[O-] [DTNB, 5,5′-dithiobis(2-nitrobenzoic acid)] | not inhibited | not inhibited | inhibition | inhibition |  |
| CC(=O)N[C@H]1[C@H](OC[C@H]2O[C@H](Oc3ccc([N+](=O)[O-])cc3)[C@H](NC(C)=O)[C@@H](O[C@@H]3O[C@H](CO)[C@H](O)[C@H](O)[C@H]3O)[C@H]2O)O[C@H](CO)[C@@H](O)[C@@H]1O [Gal(β1-3) GlcNAc(β1-6)GalNAcα-pNp] |  |  |  |  | inhibitory potential of the reaction product, C217S compared with wild-type [7]: the same for both enzymes; inhibitory potential of the reaction product, C217S compared with wild-type [8]: the same for both enzymes |
| CC(=O)N[C@H]1[C@@H](Oc2ccc([N+](=O)[O-])cc2)O[C@H](CO)[C@H](O)[C@@H]1O[C@@H]1O[C@H](CO)[C@H](O)[C@H](O)[C@H]1O [Gal(β1-3)GalNAcα-pNp] |  |  |  |  | Km [7, 12]: 320 µM; Km ([8]; C217S mouse enzyme, acceptor substrate titrated, read-out: Km value for the acceptor substrate): 130 µM; Km [9, 12]: 340 µM; Km [10, 12]: 150 µM |
| [Cl][Hg][Cl] [Hg^2+, HgCl2] | insensitive | did not affect | inhibit | inhibit |  |
| NC(=O)CI [Iodoacetamide] | not inhibited | not inhibited | inhibition | inhibition |  |
| CCN1C(=O)C=CC1=O [N-ethylmaleimide] | not inhibited | not inhibited | inhibition | inhibition |  |
| O=c1ccn([C@@H]2O[C@H](COP(=O)(O)OP(=O)(O)O)[C@@H](O)[C@H]2O)c(=O)[nH]1 [UDP] |  |  |  |  | inhibitory potential of the reaction product, C217S compared with wild-type [7]: the same for both enzymes; inhibitory potential of the reaction product, C217S compared with wild-type [8]: the same for both enzymes |
| O=S(=O)([O-])[O-].[Zn+2] [Zn^2+, ZnSO4] | insensitive to Hg^2+ only | did not affect | inhibit | inhibit |  |
| uridine diphospho-N-acetylglucosamine [UDP-GlcNAc] |  |  |  |  | Km [7, 13]: 1100 µM; Kd ([8]; C217S mouse enzyme, Ordered Bi Bi mechanism, read-out: KD for the donor substrate): 110 µM; Km ([8]; C217S mouse enzyme, donor substrate titrated, read-out: Km value for the donor substrate): 1500 µM; Km [9, 13]: 1200 µM; Kd [11]: 110 µM; Km [10, 13]: 1500 µM |
